# Assay results taken from patent US12421228B2 (Mirati Therapeutics, Inc., priority 2019, dated 2025).
# Experiments:
# [1] = tested on: Karpas 422 cells (EZH2 Y641N); assay: Karpas 422 cell viability (Cell Titre Glo); format: cell-based; conditions: Homo sapiens, CTG viability, Day 4, Day 7 or Day 11 (time point not given), read-out: IC50 (nM), Inhibiting Proliferation of Cells Expressing an Activating Mutant Form of EZH2
# Procedure: Karpas 422 cell line is a human B cell non-Hodgkin's lymphoma cell line established from a patient having DLBCL. This EZH2 heterozygotic cell line expresses a mutant form of EZH2 enzyme (Y641N) that increases histone H3 methylation and this mutation has been implicated in the tumorgenesis of lymphomas, such as DLBCL.
# Karpas 422 cells (PHE cat no., 06101702) were cultured in RPMI medium supplemented with 20% fetal bovine serum and 1% penicillin/1% streptomycin and plated at a density of 1000 cells/90 μl/well in 96 well white assay plates. A dose response curve for compounds of the present invention was determined by adding a 10 μl aliquot of stock solutions of varying concentrations of compounds to the same medium in each well, over a concentration range of 10 μM using 3-fold dilutions to a final concentration of 1.5 nM. The plates were incubated at 37° C. for predetermined time periods, Day 4, Day 7, or Day 11, and the viability of the cells was measured using a CTG assay kit (Cell Titre Glo; Promega cat. no G7573) on Day 4 and Day 7 in accordance with the manufacturer's instructions.
# For the viability assay for the Day 11 plates, the plates were subjected to centrifugation at 1100 rpm for five minutes on Day 7 and the supernatant was removed by aspiration. The cells were resuspended in 90 μl aliquot of the appropriate growth medium lacking the compound followed by addition of 10 μl of a 10× stock of the same compound at the same concentration. The viability of the Day 11 cells was measured using the CTG assay kit described above in accordance with the manufacturer's instructions. The IC50 values for each compound at each predetermined time point were calculated using Graph pad PRISM software and the results are shown in Table 8. A=≤250 nM; B=[…]−≤500 nM; C=>500 nM and N.D.=not determined.
# [2] = biological target: purified human, His-tagged PRC2 complex (Homo sapiens (Human), UniProt O75530); assay: Hot Spot HMT assay, inhibition of PRC2 enzymatic activity; format: biochemical; conditions: 10 nM PRC2 complex, 0.05 mg/ml core histone H3, 1 μM 3H-SAM, 1 hr at 30° C.; read-out: IC50, Inhibition of PRC2-mediated Enzymatic Activity
# Procedure: Ten-point dose-response curves for compounds of the present invention were determined using a Hot Spot HMT assay (Reaction Biology Corp; see Horiuchi et al., Assay Drug Dev Technol. (2013) 4: 227-236 doi: 10.1089/adt.2012.480). The assay uses purified human, His-tagged PRC2 complex, including N-terminal His-tagged EZH2 enzyme, N-terminal Flag-tagged embryonic ectoderm development protein (EED), N-terminal His-tagged suppressor of zeste 12 (SUZ12), N-terminal His-tagged AEBP2, and N-terminal His-tagged RbAp48. In this assay, the transfer of the tritiated methyl group from radiolabeled S-adenosyl methionine (SAM) to purified core histone protein by EZH2 is quantitated after filtration to determine the activity of the core PRC2 complex in the presence and absence of compound.
# Briefly, compounds of the present invention were solubilized in DMSO and a series of 10, three-fold serial dilutions were made for each compound in 15% DMSO. The initial starting concentration for the serial dilutions of each compound was 1.0 μM. Control samples lacking compound, EZH2 enzyme or various reaction components also were prepared and processed in parallel with compound test samples. SAH (S-(5-adenosyl)-L-homocysteine) was used as a positive control for assay validation.
# An aliquot of each serial dilution of test compound was added to deep 384 well plate using Acoustic Technology instrument (Echo 550, LabCyte) containing reaction buffer (50 mM Tris-HCl (pH 8)), 0.01% Brij35, 1 mM EDTA, 1 mM DTT, 1 mM PMSF and 1% DMSO), 10 nM purified PRC2 complex and 0.05 mg/ml core histone H3 in a 5 μl volume. The reaction was mixed gently and then pre-incubated for 20 min at 30° C. The enzymatic reaction was initiated by adding 1 μM S-Adenosyl-L-[methyl-^3H]methionine and incubated for 1 hr at 30° C. After 1 hr, the reaction product was detected using a filter binding method and the amount of tritiated H3 core histone was quantitated using a scintillation counter. The IC50 value for each compound was determined from each 10-point dose-response curve using GraphPad Prism software and the results for compounds of present invention, including compounds of Formula (I) and Formula (II) are shown in Table 6. Key: A=<100 nM; B=>100 nM−<250 nM; and C=>250 nM.
# [3] = tested on: PRC2-mediated histone H3 methylation in Pfeiffer cells (EZH2 A677G); assay: Tri-Methyl Histone H3 (Lys 27) sandwich ELISA in Pfeiffer cells; format: cell-based; conditions: Homo sapiens, 96 hours incubation, H3K27me3 ELISA, read-out: IC50 (nM), Inhibition of EZH2-mediated Histone H3 Trimethylation
# From the text: The Pfeiffer cell line was established from a […] from a patient having metastatic diffuse large B-cell lymphoma (DLBCL). This cell line expresses a mutant form of the EZH2 enzyme (A677G) that results in enhanced EZH2 activity leading to increased methylation of histone H3 Lys27. Increased trimethylation of histone H3 Lys27 is believed to be implicated in tumorgenesis and poor clinical prognosis in lymphomas (McCabe et al., (2012) Nature 492:108-112).
# Inhibition of PRC2-mediated histone H3 methylation by compounds of Formula (I) was measured by ELISA using a Tri-Methyl Histone H3 (Lys 27) Sandwich ELISA Kit (Cell Signaling Tech #7866C) in accordance with the manufacturer's instructions. Briefly, Pfeiffer cells were cultured in RPMI medium supplemented with 10% fetal bovine serum and 1% penicillin and 1% streptomycin in 96 well culture plates at 37° C. to a density of 8000 cells/90 μl/well and the cells were harvested. A series of 3-fold serial dilutions of each test compound of Formula (I) were prepared in RPMI medium and added to the cells at final concentrations ranging from […] to 0.15 nM. The plates were incubated at 37° C. for 96 hours.
# After incubation, the cells were pelleted by centrifugation in a pre-cooled 4° C. rotor at 1,100 rpm for 10 min and the supernatant was removed by aspiration. The cell pellet was resuspended in 55 μl of Lysis Buffer (0.4M HCl) and incubated on ice with periodic shaking for 30 minutes. The lysed cells were subjected to centrifugation at 4,200 rpm for 10 min at 4° C. and the supernatant containing acid-soluble proteins was collected and the remainder discarded. The acid-soluble proteins were brought to a neutral pH by the addition of 20 μl of Neutralization Buffer (1 M Sodium phosphate, dibasic (pH 12.5), 2.5 mM DTT and 1 mM PMSF) and the neutralized lysates were analyzed by ELISA.
# A 65 μl aliquot of each cell lysate was added to a well of a microwell strip, the microwells were sealed using tape and incubated either at 37° C. for two hours or at 4° C. overnight. After incubation, the tape was removed at the microwells were washed four times using 200 μl of 1× Wash Buffer. To each washed microwell, a 100 μl aliquot of an anti-trimethyl histone H3 Lys27 Detection Antibody solution was added and the microwells were incubated at 37° C. for one hour. The Detection Antibody solution was removed by aspiration and the wells were washed four times each using 200 μl of 1× Wash Buffer.
# A 100 μl aliquot of an HRP-linked secondary antibody was added to each well, the wells were sealed with tape and incubated at 37° C. for 30 min. The HRP-linked secondary antibody solution was removed by aspiration and the wells were washed four times using 200 μl of 1× Wash Buffer. A 100 μl aliquot of a TMB substrate was added to each well, the wells were sealed with tape and incubated at 37° C. for 10 min or 25° C. for 30 min. The reaction was stopped by the addition of 100 μl aliquot of a STOP solution and the plate was shaken briefly. The degree of histone H3 trimethylation was determined using a spectrophotometric readout by measuring the absorbance at 450 nm and then calculating the amount of trimethylated histone H3. A=≤100 nM; B=>100 nM−≤500 nM; C=>500 nM and N.D.=not determined.
# Chain of purified human, His-tagged PRC2 complex (Q15910 whole entry): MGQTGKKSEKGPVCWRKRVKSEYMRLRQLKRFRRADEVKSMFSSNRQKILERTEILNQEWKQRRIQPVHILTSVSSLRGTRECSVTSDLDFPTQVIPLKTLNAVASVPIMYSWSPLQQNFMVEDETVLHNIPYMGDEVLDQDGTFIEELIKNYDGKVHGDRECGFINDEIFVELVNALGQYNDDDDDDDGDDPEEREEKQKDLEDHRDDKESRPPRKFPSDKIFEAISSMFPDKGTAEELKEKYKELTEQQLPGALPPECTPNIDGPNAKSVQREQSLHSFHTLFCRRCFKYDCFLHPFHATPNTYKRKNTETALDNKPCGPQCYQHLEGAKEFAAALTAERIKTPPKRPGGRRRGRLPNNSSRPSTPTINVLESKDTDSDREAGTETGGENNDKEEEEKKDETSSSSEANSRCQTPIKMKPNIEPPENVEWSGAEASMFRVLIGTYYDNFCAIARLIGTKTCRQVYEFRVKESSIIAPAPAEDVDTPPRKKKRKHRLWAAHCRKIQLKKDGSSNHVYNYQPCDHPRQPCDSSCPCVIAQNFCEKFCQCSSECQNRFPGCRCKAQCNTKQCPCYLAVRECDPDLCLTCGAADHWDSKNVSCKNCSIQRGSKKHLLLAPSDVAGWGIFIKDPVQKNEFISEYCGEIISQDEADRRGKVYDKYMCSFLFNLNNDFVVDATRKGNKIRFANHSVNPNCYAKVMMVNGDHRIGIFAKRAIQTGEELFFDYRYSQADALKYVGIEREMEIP
# Chain of purified human, His-tagged PRC2 complex (O75530 whole entry): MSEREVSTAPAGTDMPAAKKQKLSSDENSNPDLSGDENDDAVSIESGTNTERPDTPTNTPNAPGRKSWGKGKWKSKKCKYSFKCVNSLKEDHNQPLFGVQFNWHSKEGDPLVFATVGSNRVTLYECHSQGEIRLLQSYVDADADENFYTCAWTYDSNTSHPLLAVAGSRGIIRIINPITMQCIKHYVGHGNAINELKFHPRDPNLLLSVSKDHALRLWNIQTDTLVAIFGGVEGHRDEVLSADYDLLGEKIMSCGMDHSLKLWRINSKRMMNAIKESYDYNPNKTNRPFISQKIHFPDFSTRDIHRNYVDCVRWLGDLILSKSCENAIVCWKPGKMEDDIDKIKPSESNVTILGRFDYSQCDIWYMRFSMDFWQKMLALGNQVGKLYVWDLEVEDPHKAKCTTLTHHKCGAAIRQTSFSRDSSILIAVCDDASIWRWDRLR
# Chain of purified human, His-tagged PRC2 complex (Q15022 whole entry partner): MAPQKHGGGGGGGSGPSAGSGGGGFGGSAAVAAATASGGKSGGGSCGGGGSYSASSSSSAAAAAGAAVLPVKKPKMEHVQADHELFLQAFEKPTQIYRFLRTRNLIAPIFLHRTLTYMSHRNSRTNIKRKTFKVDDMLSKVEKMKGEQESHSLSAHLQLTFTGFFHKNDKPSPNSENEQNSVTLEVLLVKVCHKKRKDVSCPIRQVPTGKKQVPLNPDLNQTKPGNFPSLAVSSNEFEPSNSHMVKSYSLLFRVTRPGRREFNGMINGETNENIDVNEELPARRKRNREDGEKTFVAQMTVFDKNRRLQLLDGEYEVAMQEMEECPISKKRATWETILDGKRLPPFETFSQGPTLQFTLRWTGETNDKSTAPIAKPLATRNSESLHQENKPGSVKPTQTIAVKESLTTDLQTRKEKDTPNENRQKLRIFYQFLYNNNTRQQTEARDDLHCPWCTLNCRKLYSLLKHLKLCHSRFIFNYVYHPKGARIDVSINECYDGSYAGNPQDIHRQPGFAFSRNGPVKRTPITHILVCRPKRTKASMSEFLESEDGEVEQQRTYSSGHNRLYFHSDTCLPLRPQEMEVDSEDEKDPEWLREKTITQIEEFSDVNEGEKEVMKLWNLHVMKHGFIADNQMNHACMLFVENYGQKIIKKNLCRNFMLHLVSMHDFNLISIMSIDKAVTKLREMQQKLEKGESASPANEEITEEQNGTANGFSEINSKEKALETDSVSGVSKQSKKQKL
# Chain of purified human, His-tagged PRC2 complex (Q6ZN18 whole entry partner): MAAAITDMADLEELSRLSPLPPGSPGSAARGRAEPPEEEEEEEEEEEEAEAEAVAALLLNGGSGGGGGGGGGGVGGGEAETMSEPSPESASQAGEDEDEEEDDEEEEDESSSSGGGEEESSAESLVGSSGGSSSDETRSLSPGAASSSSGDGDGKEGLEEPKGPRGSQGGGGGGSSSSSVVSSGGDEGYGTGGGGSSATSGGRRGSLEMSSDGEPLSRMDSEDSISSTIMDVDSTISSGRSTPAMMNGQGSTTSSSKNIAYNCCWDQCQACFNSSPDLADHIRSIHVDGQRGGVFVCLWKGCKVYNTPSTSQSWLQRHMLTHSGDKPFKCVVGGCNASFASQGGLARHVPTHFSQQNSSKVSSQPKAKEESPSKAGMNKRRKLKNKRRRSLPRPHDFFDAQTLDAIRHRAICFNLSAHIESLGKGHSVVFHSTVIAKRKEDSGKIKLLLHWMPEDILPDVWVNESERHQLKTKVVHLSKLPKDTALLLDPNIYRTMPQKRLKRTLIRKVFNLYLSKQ
# Chain of purified human, His-tagged PRC2 complex (Q09028 whole entry partner): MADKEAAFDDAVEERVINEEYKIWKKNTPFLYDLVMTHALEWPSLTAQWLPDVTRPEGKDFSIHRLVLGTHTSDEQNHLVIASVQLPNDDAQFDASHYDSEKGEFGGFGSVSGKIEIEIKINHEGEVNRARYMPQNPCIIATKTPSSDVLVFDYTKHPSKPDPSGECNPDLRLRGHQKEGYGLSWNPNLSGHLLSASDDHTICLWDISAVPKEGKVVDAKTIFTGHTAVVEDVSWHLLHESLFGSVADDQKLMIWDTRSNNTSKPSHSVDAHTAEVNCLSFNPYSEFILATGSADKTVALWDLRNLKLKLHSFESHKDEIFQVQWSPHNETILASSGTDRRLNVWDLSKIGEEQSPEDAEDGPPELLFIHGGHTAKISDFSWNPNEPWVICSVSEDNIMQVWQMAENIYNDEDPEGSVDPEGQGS
SMILES,IC50 [1] [nM],IC50 [2] [nM],IC50 [3] [nM]
"CSc1ncc2c(NCc3c(F)ccc4c3CCO4)ncc(-c3cc(C)nn3C)c2n1 [Example 27, 8-(1,3-dimethyl-1H-pyrazol-5-yl)-N-((5-fluoro-2,3-dihydrobenzofuran-4-yl)methyl)-2-(methylthio)pyrido[4,3-d]pyrimidin-5-amine]",≤ 250,< 100,100 to 500
"CN(C)C(=O)c1cc(-c2cnc(NCc3c(F)ccc4c3CCO4)c3c[nH]c(=O)cc23)n(C)n1 [Example 47, 5-(1-(((5-fluoro-2,3-dihydrobenzofuran-4-yl)methyl)amino)-6-oxo-6,7-dihydro-2,7-naphthyridin-4-yl)-N,N,1-trimethyl-1H-pyrazole-3-carboxamide]",≤ 250,< 100,100 to 500
CN(C)S(=O)(=O)c1ccc(-c2cnc(NCc3c(F)ccc4c3CCO4)c3cnncc23)cc1 [Example 8],≤ 250,< 100,≤ 100
Cc1cc(S(C)(=O)=O)ccc1-c1cnc(NCc2c(F)ccc3c2CCO3)c2cnccc12 [Example 31],> 500,100 to 250,> 500
CN(C)Cc1ccc(-c2cnc(NCc3c(F)ccc4c3CCO4)c3cncnc23)cc1 [Example 23],≤ 250,< 100,100 to 500
"Cc1cc(-c2cnc(NCc3c(F)ccc4c3CCO4)c3cnccc23)n(C)n1 [Example 29, 4-(1,3-dimethyl-1H-pyrazol-5-yl)-N-((5-fluoro-2,3-dihydrobenzofuran-4-yl)methyl)-2,7-naphthyridin-1-amine]",250 to 500,< 100,100 to 500
"CN(C)CCn1nccc1-c1cnc(NCc2c(F)ccc3c2CCO3)c2c[nH]c(=O)cc12 [Example 46, 5-(1-(2-(dimethylamino)ethyl)-1H-pyrazol-5-yl)-8-(((5-fluoro-2,3-dihydrobenzofuran-4-yl)methyl)amino)-2,7-naphthyridin-3(2H)-one]",≤ 250,> 250,100 to 500
"CN1CCc2cc(-c3cnc(NCc4c(F)ccc5c4CCO5)c4cnncc34)ccc2C1 [Example 17, N-((5-fluoro-2,3-dihydrobenzofuran-4-yl)methyl)-8-(2-methyl-1,2,3,4-tetrahydroisoquinolin-6-yl)pyrido[3,4-d]pyridazin-5-amine]",≤ 250,< 100,≤ 100
CN(C)C(=O)c1ccc(-c2cnc(NCc3c(F)ccc4c3CCO4)c3cnncc23)cc1 [Example 9],≤ 250,100 to 250,≤ 100
"CNCc1ccc(-c2cnc(NCc3c(F)ccc4c3CCO4)c3cnncc23)cc1 [Example 21, N-((5-fluoro-2,3-dihydrobenzofuran-4-yl)methyl)-8-(4-((methylamino)methyl)phenyl)pyrido[3,4-d]pyridazin-5-amine]",≤ 250,100 to 250,100 to 500
"Cc1cc(-c2cnc(NCc3c(F)ccc4c3CCO4)c3cnc(N(C)C)cc23)n(C)n1 [Example 49, 4-(1,3-dimethyl-1H-pyrazol-5-yl)-N^1-((5-fluoro-2,3-dihydrobenzofuran-4-yl)methyl)-N^6,N^6-dimethyl-2,7-naphthyridine-1,6-diamine]",> 500,100 to 250,> 500
"Cc1cc(-c2cnc(NCc3c(F)ccc4c3CCO4)c3ccncc23)n(C)n1 [Example 56, 4-(1,3-dimethyl-1H-pyrazol-5-yl)-N-((5-fluoro-2,3-dihydrobenzofuran-4-yl)methyl)-2,6-naphthyridin-1-amine]",> 500,> 250,100 to 500
"Cc1cc(-c2cnc(NCc3c(F)ccc4c3CCO4)c3cncnc23)n(C)n1 [Example 22, 8-(1,3-dimethyl-1H-pyrazol-5-yl)-N-((5-fluoro-2,3-dihydrobenzofuran-4-yl)methyl)pyrido[4,3-d]pyrimidin-5-amine]",≤ 250,< 100,≤ 100
"COc1nccc2c(NCc3c(F)ccc4c3CCO4)ncc(-c3cc(C)nn3C)c12 [Example 54, 4-(1,3-dimethyl-1H-pyrazol-5-yl)-N-((5-fluoro-2,3-dihydrobenzofuran-4-yl)methyl)-5-methoxy-2,6-naphthyridin-1-amine]",250 to 500,> 250,> 500
Cc1cc(CN(C)C)ccc1-c1cnc(NCc2c(F)ccc3c2CCO3)c2cnccc12 [Example 30],> 500,> 250,> 500
CN(C)Cc1ccc(-c2cnc(NCc3cccc4c3CCO4)c3cncnc23)cc1 [Example 25],≤ 250,> 250,100 to 500
Fc1ccc2c(c1CNc1ncc(-c3ccc(CN4CCCC4)cc3)c3cnncc13)CCO2 [Example 2],≤ 250,< 100,≤ 100
